Assay results from patent US20170326155A1, “NOVEL PHARM[…] FOR NEUROMUSCULAR CONTRACTURES” (Children's Hospital Medical Center, priority 2016, published 2017).

Experiments:
[1] = system: shoulder contractures following NBPI; experiment: Mouse model of neonatal brachial plexus injury (NBPI), muscle contracture formation; format: in vivo, mice; settings: for severity of shoulder contractures: single systemic dose following NBPI, 4 weeks post NBPI, compared to controls, preliminary experiment
Description: Experimental Model: Unilateral brachial plexus injuries are surgically created at 5 days of age in mice. The immediate paralysis mimics that of the human condition, and can be modulated by different surgical techniques of nerve injury. Within 4 weeks after NBPI, muscle contractures form at the shoulder and elbow, replicating the human contractures. (Not shown.) Muscles can be harvested for analysis of growth and cellular behavior. The use of unilateral injuries preserves the contralateral limb as a control, minimizing the number of mice required.

[2] = system: adult skeletal muscle regeneration; settings: not tested in pediatric neuromuscular conditions; cited from earlier work

SMILES: C[C@]12CC[C@H]3[C@@H](CCC4=CC(=O)CC[C@@H]43)[C@@H]1CC[C@@H]2O [Nandrolone]
- contracture severity following NBPI ([1]; neonatal treatment, preliminary): lessened contracture severity
- severity of shoulder contractures [1]: lessened the severity of shoulder contractures
- severity of shoulder contractures ([1]; listed as nandrolone): decreased the severity of the shoulder contracture

SMILES: CCCCc1nc(Cl)c(CO)n1Cc1ccc(-c2ccccc2-c2nn[nH]n2)cc1 [losartan]
- adult skeletal muscle regeneration [2]: improve adult skeletal muscle regeneration
